{"source": "patent US20040242501A1", "about": "“Spermicidal and virucidal properties of various forms of sophorolipids” (priority 2003, published 2004)", "key": {"[1]": {"test_system": "HIV-1 RF", "assay": "Cell-free HIV inactivation assay", "format": "cell-based, human immunodeficiency virus (HIV)", "conditions": "for virucidal / antiviral activity, in words: HIV as model organism, positive = minimum reduction in virus titer of 2 logs; for Log Reduction in Virus Titer: two-minute exposure, day 7, virus control 6.0 log10 TCID50/0.1 mL", "protocol": "(§1) Pre-titered concentrated virus (HIV-1 RF) stock (10 μL) was mixed with 90 μL of the test agent formulation in microtubes. At the end of the two-minute exposure period, serial 10-fold dilutions were carried out with a multichannel pipettor so that the sample dilutions were performed simultaneously. Aliquots (100 μL) of the serial dilutions were then transferred simultaneously to another 96-well plate which had been pre-seeded with MT-2 cells in RPMI medium supplemented with FBS. Four wells were used for each dilution of virus. The cultures were incubated at 37° C. in a humidified atmosphere of 5% CO2. The cultures were scored microscopically for virus-induced cytopathic effect and agent-induced cytotoxicity on day 4 and 7 of incubation, and day 7 reported. Cultures were routinely maintained 2 to 3 days after initial analysis, and observed visually and microscopically for abnormalities."}, "[2]": {"test_system": "MT-2 cells", "assay": "Agent-induced cytotoxicity in cell-free inactivation assay", "format": "cell-based", "design": "TCTD50 Cytotoxicity: unit not given here", "conditions": "for TCTD50 Cytotoxicity: MT-2 cells, day 7", "protocol": "as §1"}, "[3]": {"test_system": "human spermatozoa (swim-up sperm)", "assay": "Sperm motility time response (real-time and post-dilution/post-wash)", "format": "cell-based", "conditions": "0.3 mg/mL, mean ± SD, n=5; for Real-Time Motility (%): initial solvent DMSO; for Post-Dilution Motility (%): then washed, 30 min post-washing", "protocol": "(§2) Motility and viability time-responses were studied with a sophorolipid testing concentration of 0.3 mg/mL. At this concentration no effect of the solvent was observed. All sperm used for this experiment and throughout the study were obtained from human semen samples through a one hour swim-up separation technique in BWW medium+0.1% HSA. 100 uL of swim-up sperm were incubated with 1 uL of compound for the time points of 2 min, 30 min, 2 hrs, and 4 hrs and assessed for progressive motility (“real-time” assessment). n=5 for all time points. Co-incubation samples were diluted with 1 mL of BWW medium+0.1% HSA. The tubes were centrifuged, the supernatant removed, and the sperm resuspended in the original volume of 100 uL BWW+0.1% HSA and incubated at 37° C., 5% CO2. At 30 min post-washing, motility was again assessed. After the 30 min post-wash assessment, 900 uL of HOS medium was added to the sample and tubes were incubated for 30 min at 37° C. Post-incubation, samples were assessed for viability. Motility and viability were quantified “manually” under dark field microscopy (Nikon E-800)."}, "[4]": {"test_system": "human spermatozoa (swim-up sperm)", "assay": "Sperm viability after washing (HOS medium)", "format": "cell-based", "conditions": "0.3 mg/mL, post-wash, mean ± SD, n=5", "protocol": "as §2"}, "[5]": {"conditions": "Percent of agent during exposure 0.03"}, "[6]": {"conditions": "Percent of agent during exposure 0.09"}, "[7]": {"conditions": "Percent of agent during exposure 0.3"}}, "data": [{"smiles": "CCOC(=O)CCCCCCC/C=C\\CCCCCCC(C)O[C@@H]1O[C@H](CO)[C@@H](O)[C@H](O)[C@H]1O[C@@H]1O[C@H](CO)[C@@H](O)[C@H](O)[C@H]1O", "note": "(stereo partly shown)", "values": [{"measurement": "virucidal / antiviral activity, in words", "setting": "[1]", "result": "high activity"}, {"measurement": "selectivity index (virucidal activity vs cytotoxicity), in words", "setting": "[1]; comparison among the four sophorolipids of Table 2", "result": "best selectivity index"}, {"measurement": "cytotoxicity, in words", "setting": "[2]", "result": "reduced cytotoxicity"}]}, {"smiles": "CCOC(=O)CCCCCCC/C=C\\CCCCCCC(C)O[C@@H]1O[C@H](CO)[C@@H](O)[C@H](O)[C@H]1O[C@@H]1O[C@H](CO)[C@@H](O)[C@H](O)[C@H]1O", "note": "(relative stereo) [SLET, Ethyl 17-L-[(2′-O-β-D-glucopyranosyl-β-D-glucopyranosyl)-oxy]-cis-9-octadecenoate]", "values": [{"measurement": "virucidal / antiviral activity, in words", "setting": "[1]; listed as ethyl ester form of sophorolipid", "result": "highly effective"}, {"measurement": "Log Reduction in Virus Titer", "setting": "[1]; [5]", "result": 2.0, "unit": "Log"}, {"measurement": "Log Reduction in Virus Titer", "setting": "[1]; [6]", "result": 3.3, "unit": "Log"}, {"measurement": "Log Reduction in Virus Titer", "setting": "[1]; [7]", "result": 4.3, "unit": "Log"}, {"measurement": "Real-Time Motility (%)", "setting": "[3]; 2 min incubation", "result": "0.73 ± 0.81", "unit": "%"}, {"measurement": "Post-Dilution Motility (%)", "setting": "[3]; 2 min incubation", "result": "3.37 ± 3.87", "unit": "%"}, {"measurement": "Real-Time Motility (%)", "setting": "[3]; 30 min incubation", "result": "0.00 ± 0.00", "unit": "%"}, {"measurement": "Post-Dilution Motility (%)", "setting": "[3]; 30 min incubation", "result": "0.00 ± 0.00", "unit": "%"}, {"measurement": "Real-Time Motility (%)", "setting": "[3]; 2 hour incubation", "result": "0.00 ± 0.00", "unit": "%"}, {"measurement": "Post-Dilution Motility (%)", "setting": "[3]; 2 hour incubation", "result": "0.00 ± 0.00", "unit": "%"}, {"measurement": "TCTD50 Cytotoxicity", "setting": "[2]; [5]", "result": "≦0.5"}, {"measurement": "TCTD50 Cytotoxicity", "setting": "[2]; [6]", "result": "≦0.5"}, {"measurement": "TCTD50 Cytotoxicity", "setting": "[2]; [7]", "result": 1.5}, {"measurement": "Post-Dilution Viability (%)", "setting": "[4]; 2 min incubation", "result": "2.36 ± 5.29", "unit": "%"}, {"measurement": "Post-Dilution Viability (%)", "setting": "[4]; 30 min incubation", "result": "1.00 ± 2.24", "unit": "%"}, {"measurement": "Post-Dilution Viability (%)", "setting": "[4]; 2 hour incubation", "result": "0.00 ± 0.00", "unit": "%"}]}, {"smiles": "CCOC(=O)CCCCCCC/C=C\\CCCCCCC(C)O[C@@H]1O[C@H](COC(C)=O)[C@@H](O)[C@H](O)[C@H]1O[C@@H]1O[C@H](COC(C)=O)[C@@H](O)[C@H](O)[C@H]1O", "note": "(relative stereo) [SLETDA, Ethyl 17-L[(2′-O-β-D glucopyranosyl-β-D-glucopyranosyl)-oxy]-cis-9-octadecenoate 6′,6″-diacetate]", "values": [{"measurement": "Log Reduction in Virus Titer", "setting": "[1]; [5]", "result": 1.7, "unit": "Log"}, {"measurement": "Log Reduction in Virus Titer", "setting": "[1]; [6]", "result": "≧4.5 Log"}, {"measurement": "Log Reduction in Virus Titer", "setting": "[1]; [7]", "result": "≧4.5 Log"}, {"measurement": "Real-Time Motility (%)", "setting": "[3]; 2 min incubation", "result": "0.00 ± 0.00", "unit": "%"}, {"measurement": "Post-Dilution Motility (%)", "setting": "[3]; 2 min incubation", "result": "0.00 ± 0.00", "unit": "%"}, {"measurement": "Real-Time Motility (%)", "setting": "[3]; 30 min incubation", "result": "0.00 ± 0.00", "unit": "%"}, {"measurement": "Post-Dilution Motility (%)", "setting": "[3]; 30 min incubation", "result": "0.00 ± 0.00", "unit": "%"}, {"measurement": "Real-Time Motility (%)", "setting": "[3]; 2 hour incubation", "result": "0.00 ± 0.00", "unit": "%"}, {"measurement": "Post-Dilution Motility (%)", "setting": "[3]; 2 hour incubation", "result": "0.00 ± 0.00", "unit": "%"}, {"measurement": "TCTD50 Cytotoxicity", "setting": "[2]; [5]", "result": "≦0.5"}, {"measurement": "TCTD50 Cytotoxicity", "setting": "[2]; [6]", "result": 1.5}, {"measurement": "TCTD50 Cytotoxicity", "setting": "[2]; [7]", "result": 1.5}, {"measurement": "Post-Dilution Viability (%)", "setting": "[4]; 2 min incubation", "result": "0.40 ± 0.90", "unit": "%"}, {"measurement": "Post-Dilution Viability (%)", "setting": "[4]; 30 min incubation", "result": "0.20 ± 0.45", "unit": "%"}, {"measurement": "Post-Dilution Viability (%)", "setting": "[4]; 2 hour incubation", "result": "0.00 ± 0.00", "unit": "%"}]}, {"smiles": "CCCCCCOC(=O)CCCCCCC/C=C\\CCCCCCC(C)O[C@@H]1O[C@H](CO)[C@@H](O)[C@H](O)[C@H]1O[C@@H]1O[C@H](CO)[C@@H](O)[C@H](O)[C@H]1O", "note": "(relative stereo) [SLHEX, Hexyl 17-L-[(2′-O-β-D-glucopyranosyl-β-D-glucopyranosyl)-oxy]-cis-9-octadecenoate]", "values": [{"measurement": "Log Reduction in Virus Titer", "setting": "[1]; [5]", "result": 0, "unit": "Log"}, {"measurement": "Log Reduction in Virus Titer", "setting": "[1]; [6]", "result": 3.0, "unit": "Log"}, {"measurement": "Log Reduction in Virus Titer", "setting": "[1]; [7]", "result": 4.0, "unit": "Log"}, {"measurement": "Real-Time Motility (%)", "setting": "[3]; 2 min incubation", "result": "1.26 ± 1.22", "unit": "%"}, {"measurement": "Post-Dilution Motility (%)", "setting": "[3]; 2 min incubation", "result": "1.55 ± 2.18", "unit": "%"}, {"measurement": "Real-Time Motility (%)", "setting": "[3]; 30 min incubation", "result": "0.00 ± 0.00", "unit": "%"}, {"measurement": "Post-Dilution Motility (%)", "setting": "[3]; 30 min incubation", "result": "0.00 ± 0.00", "unit": "%"}, {"measurement": "Real-Time Motility (%)", "setting": "[3]; 2 hour incubation", "result": "0.00 ± 0.00", "unit": "%"}, {"measurement": "Post-Dilution Motility (%)", "setting": "[3]; 2 hour incubation", "result": "0.00 ± 0.00", "unit": "%"}, {"measurement": "TCTD50 Cytotoxicity", "setting": "[2]; [5]", "result": "≦0.5"}, {"measurement": "TCTD50 Cytotoxicity", "setting": "[2]; [6]", "result": "≦0.5"}, {"measurement": "TCTD50 Cytotoxicity", "setting": "[2]; [7]", "result": 1.5}, {"measurement": "Post-Dilution Viability (%)", "setting": "[4]; 2 min incubation", "result": "2.27 ± 3.22", "unit": "%"}, {"measurement": "Post-Dilution Viability (%)", "setting": "[4]; 30 min incubation", "result": "1.10 ± 2.46", "unit": "%"}, {"measurement": "Post-Dilution Viability (%)", "setting": "[4]; 2 hour incubation", "result": "0.00 ± 0.00", "unit": "%"}]}]}
